Assay results reported in publication PMC4830886, “Extended evaluation on the ES-D3 cell differentiation assay combined with the BeWo transport model, to predict relative developmental toxicity of triazole compounds” (Archives of Toxicology, 2015).

Tested on: ES-D3 cells
Test: ES-D3 cell differentiation assay (differentiation into contracting cardiomyocytes)
Type: cell-based, mouse
Conditions: for Corrected BMCd50: BMCd50 divided by relative Papp value (BeWo model); for IC50: Mus musculus, Cardiomyocyte, 240 h, concentration for 50 % reduction in number of differentiated EBs, BMD modelling, day 10, read-out: BMCd50
Method: The murine ES-D3 cell line was purchased from ATCC (Wesel, Germany). The cells were maintained in polystyrene cell culture flasks (Corning, The Netherlands) in Dulbecco’s modified Eagle’s medium (DMEM, Invitrogen, Breda, The Netherlands), supplemented with 20 % heat-inactivated fetal calf serum (Lonza, BioWhittaker, Verviers, Belgium), 50 U/ml penicillin with 50 μg/ml streptomycin (Invitrogen), 2 mM L-glutamine (Invitrogen), 0.1 mM β-mercaptoethanol (Sigma-Aldrich) and 1 % (v/v) nonessential amino acids (Invitrogen), at 37 °C and 5 % CO2 in a humidified atmosphere. Cells were kept undifferentiated with 1000 U/ml murine leukemia inhibiting factor (LIF) (Sigma-Aldrich) and subcultured every 2–3 days using nonenzymatic cell dissociation solution (Sigma-Aldrich) to detach the cells.
Differentiation assays were carried out to detect the effect of test compounds on the differentiation of ES-D3 cells into contracting cardiomyocytes using culture medium in the absence of LIF. On day 1, droplets of 20 μl cell suspension (3.75 × 10^4 cells/ml) were placed as hanging drops, to which the test compounds 0594, 0595, 0596, 0599, 0600 and 0618 were added at concentrations ranging from 0.2 to 60 μM (final solvent concentration 0.2 % DMSO), on the inner side of the lid of a 96-well plate. Sterile lids of Eppendorf tubes were placed on the corner wells of the plates to prevent contact of the drops with the plate. The wells of the 96-well plate were filled with 250 μl phosphate buffered saline (PBS) (Invitrogen), and the plate was sealed with Micropore tape (3M, Neuss, Germany) to prevent evaporation of the hanging drops. Plates were incubated for 3 days at 37 °C and 5 % CO2 in a humidified atmosphere. In the drops, cells formed embryonic bodies (EBs), which were transferred to nontissue culture-treated Petri dishes (diameter 6 cm, Greiner) with 5 ml of medium with test compound. On day 5, the EBs were transferred to a 24-well plate (Corning) with 1 ml of medium with test compound, with one EB per well. On day 10, the number of wells containing contracting EBs was determined by visual inspection using a light microscope. Solvent control (0.2 % DMSO in culture medium) was included in each experiment. The solvent control was also used to assess the quality of the batch of ES-D3 cells used in each individual test (cells being randomly distributed over test groups and solvent control). Tests were accepted for further analysis if at least 21 of the 24 wells of the solvent control contained contracting cardiomyocytes. For each test compound, three independent assays were performed. The results were expressed as “fraction of total,” with 1.0 implying all EBs in one 24-well plate differentiated into contracting cardiomyocytes.
Different dichotomous concentration–response models were fitted to the in vitro developmental toxicity data obtained from the ES-D3 cell differentiation assay to calculate benchmark concentrations (BMC) using Environmental Protection Agency benchmark dose (BMD) software version 2.4. For each test compound, the BMCd50, representing the concentration for a 50 % reduction in the number of differentiated EBs, was derived. Models included in the evaluation were the gamma, logistic, loglogistic, probit, logprobit, multistage, weibull and the quantal-linear model. […] The lowest BMCd50 value was chosen from the accepted models.
To combine in vitro developmental toxicity data obtained from the ES-D3 cell differentiation assay with placental transfer data obtained from the BeWo transport model, a corrected BMCd50 value was calculated by dividing the BMCd50 values by the relative Papp values, as described in Li et al. ([2015]).

| Compound | Corrected BMCd50 | IC50 |
| --- | --- | --- |
| OC(c1cccnc1)c1c(-c2ccc(F)cc2F)noc1-c1ccc(Cl)cc1F (stereo not shown) [compound 0594, [5-(4-Chloro-2-fluoro-phenyl)-3-(2,4-difluoro-phenyl)-isoxazol-4-yl]-pyridin-3-yl-methanol] | 23.3 µM | 6.9 µM |
| OC(c1cccnc1)c1c(-c2ccc(F)cc2F)csc1-c1ccc(F)cc1F (stereo not shown) [compound 0595, [2,4-Bis-(2,4-difluoro-phenyl)-thiophen-3-yl]-pyridin-3-yl-methanol] | 141.8 µM | 11 µM |
| CC(c1nc(-c2ccc(C#N)cc2)cs1)C(O)(Cn1cncn1)c1ccc(F)cc1 (stereo not shown) [compound 0596, 4-{2-[2-(4-Fluoro-phenyl)-2-hydroxy-1-methyl-3-[1,2,4]triazol-1-yl-propyl]-thiazol-4-yl}-benzonitrile] | 18.1 µM | 11.4 µM |
| CC(c1nc(-c2ccc(C#N)cc2)cs1)C(O)(Cn1ccnc1)c1ccc(F)cc1 (stereo not shown) [compound 0599, 4-[2-[2-(4-Fluorophenyl)-2-hydroxy-3-imidazol-1-yl-1-methyl-propyl]thiazol-4-yl]benzonitrile] | 3.8 µM | 1.8 µM |
| CC1CC(C)OC(Cn2cncn2)(c2ccc(Oc3ccc(Cl)cc3)cc2Cl)O1 (stereo not shown) [compound 0600, 1-[[2-[2-Chloro-4-(4-chlorophenoxy)phenyl]-4,6-dimethyl-1,3-dioxan-2-yl]methyl]-1,2,4-triazole] | 21.0 µM | 4.2 µM |
